Reference: the NIST ThermoML archive (doi:10.1021/acs.jced.8b01004)

Experiment: xn = mol fraction of the nth substance listed
Conditions: 100 kPa, Liquid; for viscosity: Falling or rolling sphere viscometry; for mass density: Vibrating tube method

OC1CCCC1 [cyclopentanol] + CC1CCCCC1
Conditions | mass density [kg/m3] | viscosity [mPa·s]
293.15 K, x2 = 0 | 946.99 | 11.88
293.15 K, x2 = 0.0995 | 924.17 | 7.639
293.15 K, x2 = 0.2005 | 902.36 | 4.929
293.15 K, x2 = 0.2971 | 882.38 | 3.505
293.15 K, x2 = 0.4001 | 862.34 | 2.41
293.15 K, x2 = 0.5014 | 843.89 | 1.793
293.15 K, x2 = 0.5994 | 827.06 | 1.396
293.15 K, x2 = 0.6828 | 813.6 | 1.166
293.15 K, x2 = 0.7949 | 796.76 | 0.96
293.15 K, x2 = 0.8975 | 782.42 | 0.826
298.15 K, x2 = 0 | 943.05 | 9.722
298.15 K, x2 = 0.0995 | 920.12 | 6.316
298.15 K, x2 = 0.2005 | 898.22 | 4.183
298.15 K, x2 = 0.2971 | 878.17 | 3.03
298.15 K, x2 = 0.4001 | 858.07 | 2.123
298.15 K, x2 = 0.5014 | 839.58 | 1.602
298.15 K, x2 = 0.5994 | 822.73 | 1.268
298.15 K, x2 = 0.6828 | 809.25 | 1.071
298.15 K, x2 = 0.7949 | 792.38 | 0.89
298.15 K, x2 = 0.8975 | 778.04 | 0.772
303.15 K, x2 = 0 | 939.05 | 8.068
303.15 K, x2 = 0.0995 | 916.02 | 5.48
303.15 K, x2 = 0.2005 | 894.03 | 3.587
303.15 K, x2 = 0.2971 | 873.91 | 2.644
303.15 K, x2 = 0.4001 | 853.76 | 1.885
303.15 K, x2 = 0.5014 | 835.24 | 1.445
303.15 K, x2 = 0.5994 | 818.37 | 1.16
303.15 K, x2 = 0.6828 | 804.87 | 0.989
303.15 K, x2 = 0.7949 | 787.97 | 0.827
303.15 K, x2 = 0.8975 | 773.63 | 0.722
308.15 K, x2 = 0 | 935 | 7.077
308.15 K, x2 = 0.0995 | 911.87 | 4.66
308.15 K, x2 = 0.2005 | 889.79 | 3.099
308.15 K, x2 = 0.2971 | 869.61 | 2.324
308.15 K, x2 = 0.4001 | 849.41 | 1.685
308.15 K, x2 = 0.5014 | 830.86 | 1.312
308.15 K, x2 = 0.5994 | 813.97 | 1.065
308.15 K, x2 = 0.6828 | 800.45 | 0.916
308.15 K, x2 = 0.7949 | 783.54 | 0.771
308.15 K, x2 = 0.8975 | 769.19 | 0.677
313.15 K, x2 = 0 | 930.91 | 6.04
313.15 K, x2 = 0.0995 | 907.67 | 4.046
313.15 K, x2 = 0.2005 | 885.51 | 2.695
313.15 K, x2 = 0.2971 | 865.27 | 2.055
313.15 K, x2 = 0.4001 | 845.02 | 1.514
313.15 K, x2 = 0.5014 | 826.44 | 1.196
313.15 K, x2 = 0.5994 | 809.53 | 0.982
313.15 K, x2 = 0.6828 | 796 | 0.851
313.15 K, x2 = 0.7949 | 779.07 | 0.721
313.15 K, x2 = 0.8975 | 764.73 | 0.636
318.15 K, x2 = 0 | 926.75 | 5.19
318.15 K, x2 = 0.0995 | 903.41 | 3.487
318.15 K, x2 = 0.2005 | 881.17 | 2.361
318.15 K, x2 = 0.2971 | 860.88 | 1.828
318.15 K, x2 = 0.4001 | 840.59 | 1.368
318.15 K, x2 = 0.5014 | 821.99 | 1.093
318.15 K, x2 = 0.5994 | 805.06 | 0.907
318.15 K, x2 = 0.6828 | 791.51 | 0.793
318.15 K, x2 = 0.7949 | 774.57 | 0.677
318.15 K, x2 = 0.8975 | 760.23 | 0.6
323.15 K, x2 = 0 | 922.53 | 4.441
323.15 K, x2 = 0.0995 | 899.09 | 3.037
323.15 K, x2 = 0.2005 | 876.78 | 2.081
323.15 K, x2 = 0.2971 | 856.11 | 1.635
323.15 K, x2 = 0.4001 | 836.11 | 1.241
323.15 K, x2 = 0.5014 | 817.49 | 1.004
323.15 K, x2 = 0.5994 | 800.54 | 0.842
323.15 K, x2 = 0.6828 | 786.98 | 0.74
323.15 K, x2 = 0.7949 | 770.03 | 0.636
323.15 K, x2 = 0.8975 | 755.7 | 0.566
328.15 K, x2 = 0 | 918.24 | 3.83
328.15 K, x2 = 0.0995 | 894.72 | 2.674
328.15 K, x2 = 0.2005 | 872.33 | 1.843
328.15 K, x2 = 0.2971 | 851.95 | 1.472
328.15 K, x2 = 0.4001 | 831.58 | 1.13
328.15 K, x2 = 0.5014 | 812.94 | 0.924
328.15 K, x2 = 0.5994 | 795.97 | 0.782
328.15 K, x2 = 0.6828 | 782.41 | 0.692
328.15 K, x2 = 0.7949 | 765.45 | 0.599
328.15 K, x2 = 0.8975 | 751.14 | 0.537
333.15 K, x2 = 0 | 913.89 | 3.312
333.15 K, x2 = 0.0995 | 890.28 | 2.366
333.15 K, x2 = 0.2005 | 867.83 | 1.642
333.15 K, x2 = 0.2971 | 847.4 | 1.329
333.15 K, x2 = 0.4001 | 827 | 1.033
333.15 K, x2 = 0.5014 | 808.34 | 0.853
333.15 K, x2 = 0.5994 | 791.36 | 0.731
333.15 K, x2 = 0.6828 | 777.79 | 0.65
333.15 K, x2 = 0.7949 | 760.84 | 0.566
333.15 K, x2 = 0.8975 | 746.55 | 0.51
338.15 K, x2 = 0 | 909.48 | 2.886
338.15 K, x2 = 0.0995 | 885.78 | 2.109
338.15 K, x2 = 0.2005 | 863.28 | 1.471
338.15 K, x2 = 0.2971 | 842.8 | 1.205
338.15 K, x2 = 0.4001 | 822.37 | 0.948
338.15 K, x2 = 0.5014 | 803.69 | 0.79
338.15 K, x2 = 0.5994 | 786.71 | 0.683
338.15 K, x2 = 0.6828 | 773.13 | 0.611
338.15 K, x2 = 0.7949 | 756.2 | 0.536
338.15 K, x2 = 0.8975 | 741.93 | 0.486
343.15 K, x2 = 0 | 904.99 | 2.53
343.15 K, x2 = 0.0995 | 881.21 | 1.879
343.15 K, x2 = 0.2005 | 858.67 | 1.326
343.15 K, x2 = 0.2971 | 838.13 | 1.108
343.15 K, x2 = 0.4001 | 817.69 | 0.873
343.15 K, x2 = 0.5014 | 799 | 0.734
343.15 K, x2 = 0.5994 | 782.01 | 0.641
343.15 K, x2 = 0.6828 | 768.43 | 0.577
343.15 K, x2 = 0.7949 | 751.51 | 0.517
343.15 K, x2 = 0.8975 | 737.27 | 0.464
